Data from patent US8067459B2, “Lapachone compounds and methods of use thereof” (ArQule, Inc., priority 2007, dated 2011).
Where two headings read alike, the source gives them in different places.

What was measured:
[1] = system: NCM-460 normal colon epithelial cells; assay: MTS cell viability assay, NCM-460 normal colon cells; format: cell-based; conditions: for IC50: Homo sapiens, read-out: IC50 Values, Normal Cells, Colon NCM-460; for Fold Selectivity (NCM-460/DLD1): ratio of IC50 NCM-460 to IC50 DLD-1
Description: Since β-lapachone induces cell death only in cancer cell lines and not in normal cells (Li et al., (2003) Proc Natl Acad Sci USA. 100(5): 2674-8), the present compounds were also tested in a panel of normal cell lines from a variety of tissues including NCM-460 normal colon epithelial cells.
(§1) Cell viability was determined by measuring the activity of dehydrogenase enzymes in metabolically active cells using a tetrazolium compound, MTS. The assay was performed as described in Promega Technical Bulletin No. 169 (CellTiter 96 Aqueous Non-Radioactive Cell Proliferation Assay): All cells lines were grown in DMEM media (4.5 g/L glucose) supplemented with 15% heat-inactivated FBS, 10 mM L-glutamine, and 10 mM HEPES. Briefly, cells were seeded in 96-well plates and incubated for 16 to 24 hours; test compounds were serially diluted in DMSO, further diluted in cell culture media, then added to cells (final DMSO concentration of 0.33% v/v); cells were incubated in the presence of compound for 4 hours; MTS was added to the cells and incubated for four hours; SDS was added to a final concentration of 1.4% v/v and absorbance at 490 nm was measured within two hours using a plate reader. The amount of […] absorbance was directly proportional to the number of living cells in the culture.
(§2) The assays of the present invention as shown in Table 1 and methods of measuring induction of E2F1 activity and elevation of E2F1 levels can be carried out following the descriptions found in Li et al., (2003) Proc Natl Acad Sci USA. 100(5): 2674-8 and U.S. Patent Application Publication No. 2002/0169135, both incorporated herein by reference.

[2] = system: DLD-1 human colon carcinoma cells; assay: MTS cell viability assay, DLD-1 colon carcinoma cells; format: cell-based; conditions: read-out: IC50 Values, Cancerous Cells, Colon DLD-1
Description: as §1, §2

[3] = system: K-562 human leukemia cells; assay: MTS cell viability assay, K-562 leukemia cells; format: cell-based; conditions: read-out: IC50 Values, Cancerous Cells, Leukemia K-562
Description: as §1, §2

[4] = system: PACA-2 human pancreatic carcinoma cells; assay: MTS cell viability assay, PACA-2 pancreatic carcinoma cells; format: cell-based; conditions: read-out: IC50 Values, Cancerous Cells, Pancreas PACA-2
Description: as §1, §2

[5] = system: DU-145 human prostate carcinoma cells; assay: MTS cell viability assay, DU-145 prostate carcinoma cells; format: cell-based; conditions: read-out: IC50 Values, Cancerous Cells, Prostate DU-145
Description: as §1, §2

[6] = system: A549 human lung carcinoma cells; assay: MTS cell viability assay, A549 lung carcinoma cells; format: cell-based; conditions: read-out: IC50 Values, Cancerous Cells, Lung A549
Description: as §1, §2

human cancer cell lines = conditions: single agent; typical range; read-out: antineoplastic activity against human cancer cell lines (IC50); cited from earlier work
[7] = system: normal fresh or proliferating human PBMC; conditions: cited from earlier work
E2F1 checkpoint pathway = conditions: earlier studies with β-lapachone; cited from earlier work
[8] = NCM460, NCM-460, 4 hours with compound, MTS
[9] = DLD-1, 4 hours with compound, MTS
[10] = K562, K-562, 4 hours with compound, MTS
[11] = PACA-2, 4 hours with compound, MTS
[12] = DU-145, 4 hours with compound, MTS
[13] = A549, 4 hours with compound, MTS

Row | Structure (SMILES) | IC50 [2, 9] | IC50 [3, 10] | IC50 [4, 11] | IC50 [5, 12] | IC50 [6, 13] | IC50 [1, 8] | Fold Selectivity (NCM-460/DLD1) [1] | other results
1 | COC(=O)C1(C)CSC2=C(O1)c1ccccc1C(=O)C2=O (stereo not shown) | – | – | – | – | – | – | – | melting point: 188 to 189 °C
2 | CCOC(=O)N1CCN(CC2CSC3=C(O2)c2ccccc2C(=O)C3=O)CC1 (stereo not shown) [Compound 1, ethyl 4-[(5,6-dioxo-2,3,5,6-tetrahydronaphtho[1,2-b][1,4]oxathiin-2-yl)methyl]piperazine-1-carboxylate] | 1.84 µM | 2.93 µM | 1.95 µM | 4.01 µM | 4.77 µM | 4.78 µM | 2.6 | –
3 | O=C1C(=O)c2ccccc2C2=C1SCC(CN1CCC(CO)CC1)O2 (stereo not shown) [Compound 2, 2-{[4-(hydroxymethyl)piperidin-1-yl]methyl}-2,3-dihydronaphtho[1,2-b][1,4]oxathiine-5,6-dione] | 2.05 µM | 2.84 µM | 1.64 µM | 3.88 µM | 11.7 µM | 10.8 µM | 5.3 | –
4 | O=C1C(=O)c2ccccc2C2=C1SCC(CN1CCC(O)CC1)O2 (stereo not shown) [Compound 3, 2-[(4-hydroxypiperidin-1-yl)methyl]-2,3-dihydronaphtho[1,2-b][1,4]oxathiine-5,6-dione] | – | – | – | – | – | – | – | melting point: 98 to 100 °C
5 | COC(CN(C)CC1CSC2=C(O1)c1ccccc1C(=O)C2=O)OC (stereo not shown) [Compound 4, 2-{[(2,2-dimethoxyethyl)(methyl)amino]methyl}-2,3-dihydronaphtho[1,2-b][1,4]oxathiine-5,6-dione] | – | – | – | – | – | – | – | melting point: 80 to 82 °C
6 | CC(C)NC(=O)CN1CCN(CC2CSC3=C(O2)c2ccccc2C(=O)C3=O)CC1 (stereo not shown) [Compound 8, 2-{4-[(5,6-dioxo-2,3,5,6-tetrahydronaphtho[1,2-b][1,4]oxathiin-2-yl)methyl]piperazin-1-yl}-N-isopropylacetamide] | – | – | – | – | – | – | – | melting point: 85 to 87 °C
7 | O=C1C(=O)c2ccccc2C2=C1SCC(CN1CCC3(CC1)OCCO3)O2 (stereo not shown) [Compound 9, 2-(1,4-dioxa-8-azaspiro[4.5]dec-8-ylmethyl)-2,3-dihydronaphtho[1,2-b][1,4]oxathiine-5,6-dione] | – | – | – | – | – | – | – | melting point: 202 to 204 °C
8 | CCCC1CCOC2=C(S1)C(=O)C(=O)c1ccccc12 (stereo not shown) [Compound 13, 4-propyl-3,4-dihydro-2H-naphtho[1,2-b][1,4]oxathiepine-6,7-dione] | – | – | – | – | – | – | 1.4 | IC50 ([1]; NCM460, 4 h): 18.6 µM; IC50 ([2]; DLD-1, 4 h): 12.9 µM; IC50 ([3]; K562, 4 h): 10.9 µM; IC50 ([4]; PaCa-2, 4 h): 12.1 µM; IC50 ([5]; DU-145, 4 h): 13.2 µM; IC50 ([6]; A549, 4 h): > 100 µM
9 | CC1(C)CCC2=C(O1)c1ccccc1C(=O)C2=O [β-lapachone, 3,4-dihydro-2,2-dimethyl-2H-naphtho[1,2-b]pyran-5,6-dione] | – | – | – | – | – | – | – | IC50 (human cancer cell lines): 1 to 10 µM; cytotoxic effects on normal human PBMC [7]: No cytotoxic effects; activation of E2F1 checkpoint pathway in nuclei of cancer cells but not in normal cells (E2F1 checkpoint pathway): induces activation of E2F1 checkpoint pathway

Second part, led by results:

Row | IC50 [2, 9] | IC50 [3, 10] | IC50 [4, 11] | IC50 [5, 12] | IC50 [6, 13] | Structure (SMILES) | IC50 [1, 8] | Fold Selectivity (NCM-460/DLD1) [1] | other results
10 | 1.57 µM | 2.68 µM | 1.34 µM | 1.49 µM | 4.79 µM | O=C1C(=O)c2ccccc2C2=C1SCC(CN1CCN(c3ccc(F)cc3)CC1)O2 (stereo not shown) [Compound 5, -{[4-(4-fluorophenyl)piperazin-1-yl]methyl}-2,3-dihydronaphtho[1,2-b][1,4]oxathiine-5,6-dione] | 9.83 µM | 6.3 | –
11 | 4.01 µM | 5.29 µM | 3.78 µM | 4.67 µM | 12.9 µM | O=C1C(=O)c2ccccc2C2=C1SCC(CNCCc1ccccc1)O2 (stereo not shown) [Compound 6, 2-{[(2-phenylethyl)amino]methyl}-2,3-dihydronaphtho[1,2-b][1,4]oxathiine-5,6-dione] | 17.1 µM | 4.3 | –
12 | 2.95 µM | 3.89 µM | 2.75 µM | 4.22 µM | 11.3 µM | O=C1C(=O)c2ccccc2C2=C1SCC(CNCc1ccccc1)O2 (stereo not shown) [Compound 7, 2-[(benzylamino)methyl]-2,3-dihydronaphtho[1,2-b][1,4]oxathiine-5,6-dione] | 11.4 µM | 3.9 | –
13 | 1.36 µM | 2.73 µM | 2.05 µM | 4.05 µM | 5.44 µM | O=C(Nc1ccccc1)OCC1CSC2=C(O1)c1ccccc1C(=O)C2=O (stereo not shown) [Compound 11, (5,6-dioxo-2,3,5,6-tetrahydronaphtho[1,2-b][1,4]oxathiin-2-yl)methyl phenylcarbamate] | 7.65 µM | 5.6 | –
14 | 2.17 µM | 1.51 µM | 1.68 µM | 3.72 µM | 4.66 µM | CC(C)NC(=O)OCC1CSC2=C(O1)c1ccccc1C(=O)C2=O (stereo not shown) [Compound 12, (5,6-dioxo-2,3,5,6-tetrahydronaphtho[1,2-b][1,4]oxathiin-2-yl)methyl isopropylcarbamate] | 5.92 µM | 2.7 | –
15 | 3.8 µM | 4.61 µM | 3.39 µM | 3.79 µM | > 100 µM | CC1CSC2=C(O1)c1cc(-c3ccccc3)ccc1C(=O)C2=O (stereo not shown) [Compound 14, 2-methyl-9-phenyl-2,3-dihydronaphtho[1,2-b][1,4]oxathiine-5,6-dione] | 10.1 µM | 2.7 | –
16 | 32.8 µM | 58.2 µM | 32.4 µM | > 100 µM | > 100 µM | CC1CSC2=C(O1)c1cc(N3CCCCC3)ccc1C(=O)C2=O (stereo not shown) [Compound 15, 2-methyl-9-piperidin-1-yl-2,3-dihydronaphtho[1,2-b][1,4]oxathiine-5,6-dione] | 33.6 µM | 1.0 | –
17 | 2.39 µM | 2.89 µM | 2.04 µM | 3.82 µM | 5.08 µM | O=C1C(=O)c2ccccc2C2=C1SCC(COc1cccnc1)O2 (stereo not shown) [Compound 17, 2-[(pyridin-3-yloxy)methyl]-2,3-dihydronaphtho[1,2-b][1,4]oxathiine-5,6-dione] | 5.61 µM | 2.3 | –
